Values of other authors as cited in US20080188553A1, “NOVEL ASCORBIC ACID COMPOUNDS, METHODS OF SYNTHESIS AND APPLICATION USE THEREOF” (priority 2007, published 2008).

Details: relative to ascorbic acid; test conditions not given

more stable than ascorbic acid: 20 times
Structure (SMILES): O=C1O[C@H]([C@@H](O)CO)C(O)=C1OS(=O)(=O)O [L-ascorbate 2-sulphate]
